The numbers were not newly measured in patent US20040223951A1, “Combination therapy for cancer” (Schering Corporation, priority 2000, published 2004), which cites them from elsewhere.

For data set [1] the following is noted: administered orally.

Take `Cn1nnc2c(C(N)=O)ncn2c1=O` [Temozolomide, 3,4-dihydro-3-methyl-4-oxoimidazo-[5,1-d]1,2,3,4-tetrazin-8-carboximide]: the “clinical response, % of patients with advanced melanoma” value with advanced melanoma (Journal of Clinical Oncology, Vol. 13, No. 4, 1995, pp. 910-913) was 21%. In addition, in the data set with advanced melanoma (Newlands ES, et al., Br J Cancer 65 (2) 287-291, 1992), the “clinical responses, % of patients having advanced melanoma” value is on record as 17%. Moreover, the bioavailability entry in data set [1] is “approximately 100%”. Also, under “extended daily dosing of TMZ, Brock et al. Cancer Res. 1998;58:4363”, the “plasma concentration of active metabolite MTIC versus conventional dosing” value was “higher plasma concentration of the active metabolite MTIC than conventional dosing”. Where the note is “oral TMZ compared with IV DTIC”, the “plasma concentrations of MTIC versus DTIC” value is on record as “higher plasma concentrations of MTIC than IV administration of DTIC”.
